Measured values taken from PubChem BioAssay (NCI).
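Test compounds were applied to cells in 96-well plates for 48 hours at 5 doses. At the GI50, growth is halved. TGI marks complete inhibition of growth.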

Assays:
Assay in all cases: DTP human tumour cell line panel, 48 h
U251 CNS = tested on: U251 CNS
OVCAR-8 ovarian = tested on: OVCAR-8 ovarian
SW-620 colon = tested on: SW-620 colon
LOX IMVI melanoma = tested on: LOX IMVI melanoma
SN12C renal = tested on: SN12C renal
HOP-92 NSCLC = tested on: HOP-92 NSCLC
NCI-H23 lung = tested on: NCI-H23 lung
XF 498 CNS = tested on: XF 498 CNS
DLD-1 colon = tested on: DLD-1 colon

Compound	GI50 (U251 CNS) [µM]	TGI (U251 CNS) [µM]	GI50 (OVCAR-8 ovarian) [µM]	TGI (OVCAR-8 ovarian) [µM]	GI50 (SW-620 colon) [µM]	TGI (SW-620 colon) [µM]	GI50 (LOX IMVI melanoma) [µM]	TGI (LOX IMVI melanoma) [µM]	GI50 (SN12C renal) [µM]	TGI (SN12C renal) [µM]	GI50 (HOP-92 NSCLC) [µM]	TGI (HOP-92 NSCLC) [µM]	GI50 (NCI-H23 lung) [µM]	TGI (NCI-H23 lung) [µM]	TGI (XF 498 CNS) [µM]	TGI (DLD-1 colon) [µM]
Cc1ccc2[nH]c(C(=O)NN3C(=O)C(C)SC34CCCC(C)C4)c(-c3ccccc3)c2c1 (stereo not drawn)	48.8	> 100	34.5	> 100	> 100	> 100	> 100	> 100	23.5	> 100	> 100	> 100	> 100	> 100		
COc1cc2c(c(OC)c1OC)-c1c(cc3c(c1OC)OCO3)C1OC2C(C)C1C (stereo not drawn) (tested in a mixture with another compound)		> 100		> 100		> 100		> 100		> 100		> 100		> 100		
COC(=O)[C@H](Cc1c[nH]c2ccccc12)NC(=O)[C@@H](OC)[C@@H]1Cc2cc3cc(OC4CC(OC5CC(O)C(O)C(C)O5)C(O)C(C)O4)c(C)c(O)c3c(O)c2C(=O)[C@H]1OC1CC(OC2CC(OC3CC(C)(O)C(O)C(C)O3)C(O)C(C)O2)C(O)C(C)O1 (stereo partly drawn)	0.00642	> 16.5	0.0097	> 16.5	0.00863		0.00391	0.0111	0.00624	7.42	0.0039	0.0333	0.00614	0.0506		
CCc1ccc(Nc2ccc([N+](=O)[O-])cc2[N+](=O)[O-])cc1		> 100		> 100		> 100								> 100	> 100	> 100
COc1ccc(-c2nnc(COc3ccc(NC(=O)Nc4ccc(Cl)c(C(F)(F)F)c4)cc3F)o2)cc1	1.93	5.7	3.12	15.8	3.42	27.2	2.93	> 100	3.8	56	1.87	5.45	3.12	14.6		
COc1ccccc1Cn1cc2c(c1-c1ccccc1)CCc1cnoc1-2	4.06	> 100	6.22	> 100	1.83	> 100	3.04	> 100	6.61	> 100	1.36	9.42	3.36	74		
CCCCCCC(=O)C/C(=N/NC(N)=S)C(=O)NC1C2CC3CC(C2)CC1C3 (stereo not drawn)		> 100		> 100		> 100		> 100		> 100		> 100		> 100		> 100
COc1cccc(N2C(=O)[C@H]3CC(C)c4c([nH]c5ccccc45)[C@H]3C2=O)c1 (stereo partly drawn)		> 100		> 100				> 100		> 100		80.5		> 100	> 100	> 100
Cc1ccc(NC(=O)c2sc3nc(C)c(C(O)c4ccccc4)cc3c2N)cc1 (stereo not drawn)	0.384	22.4	0.611	> 100	0.355	52.7	0.629	19	0.664	25.9	0.857	20.4	0.722	> 100		
COC(C(O)c1ccc2c(c1)OCO2)P(=O)(c1ccccc1)c1ccccc1 (stereo not drawn)		> 100		> 100		> 100				> 100		> 100		> 100	> 100	> 100
COc1cc2c3c(n(CCNCCCNCCn4c5c(c6cc(OC)c(OC)cc6c4=O)C(=O)c4ccccc4-5)c(=O)c2cc1OC)-c1ccccc1C3=O	0.0733	1.49	0.0355	5.82	0.261	11.8	0.0293	0.413	< 0.0166	1.59	0.0656	0.556	1.2	17		
Cc1ccc2c3c(c(=O)[nH]c2c1)C1(C(C#N)=C(N)O3)c2cc(Br)ccc2-c2ccc(Br)cc21	1.81	3.5	3.02	8.62	1.86	4.22	1.68	3.25	1.92	4.03	1.38	3.15	2.11	4.62		
CSc1nc2cc(S(=O)(=O)N3CCCCC3)ccc2s1		> 100		> 100		> 100		> 100		> 100		> 100		> 100		
C=C1CC[C@@H]2[C@](C)(COC(C)=O)[C@H](OC(C)=O)CC[C@@]2(C)[C@@H]1CC(Nc1ccc(S(=O)(=O)Nc2ncccn2)cc1)C1=CCOC1=O (stereo partly drawn)	1.74	3.28	1.48	3.55	0.864	2.25	0.891	2.21	0.43	1.96	3.1	8.85	2.11	5.38		
Cn1c2ccccc2c2c3[nH]c(=O)[nH]c(=O)c3c3c4ccccc4n(C)c3c21	3.02	13	2.94	14.1	2.67	> 100	2.13	11.9	4.21	> 100	3.4	14.6	3.47	19.4		
COc1ccc(CNc2nc3cc(C(F)(F)F)ccc3nc2C)cc1OC		> 100		> 100		> 100		68.7		> 100				> 100	> 100	> 100
Nc1nc(-c2cccc(Cl)c2)c(-c2ccc3ncccc3n2)s1	> 25	> 25	> 25	> 25	> 25	> 25	> 25	> 25	> 25	> 25	> 24	> 25	> 25	> 25		
CC[CH2][Sn]([Cl])([Cl])[CH2]CC.Oc1ccccc1C=NCCN=Cc1ccccc1O	3.11	12.5	12.3	27.7	1.8	3.82	14.4	28	11.3	23.8	2.09	8.8	6.62	20.5		

Compound	GI50 (U251 CNS) [µM]	TGI (U251 CNS) [µM]	GI50 (OVCAR-8 ovarian) [µM]	TGI (OVCAR-8 ovarian) [µM]	GI50 (SW-620 colon) [µM]	TGI (SW-620 colon) [µM]	GI50 (LOX IMVI melanoma) [µM]	TGI (LOX IMVI melanoma) [µM]	GI50 (SN12C renal) [µM]	TGI (SN12C renal) [µM]	GI50 (HOP-92 NSCLC) [µM]	TGI (HOP-92 NSCLC) [µM]	GI50 (NCI-H23 lung) [µM]	TGI (NCI-H23 lung) [µM]	TGI (XF 498 CNS) [µM]	TGI (DLD-1 colon) [µM]
N#Cc1cccc(NC(=O)c2cc(-c3ccc(F)cc3F)ccc2O)c1	2.79	> 100	2.88	> 100	3.02	22.3	2.45	6.58	2.1	8.32	0.294	2.43	1.43	4.35		
CCCCN1CSC(=S)N(Cc2ccccc2)C1		> 100		> 100		> 100		> 100		> 100		> 100		> 100		
Cc1nc(-c2ccccc2)c(-c2ccccc2)s1		29.5		> 100		39.6		37.1		> 100		83.6		97.7		
CN1C(=O)c2ccccc2NC(=O)C12O[C@@H]2c1cccc(O)c1 (stereo partly drawn)		> 100		> 100		> 100		> 100		> 100		> 100		> 100		
C=C1C(=O)O[C@H]2[C@H]1CC/C(COC(=O)c1cc3ccccc3s1)=C\CC[C@@]1(C)O[C@@H]21	1.52	3.03	1.8	5.14	0.518	2.97	0.206	0.509	2.06	4.61	1.68	3.49	1.74	3.84		
COc1cc2c3c(n(C)c(=O)c2cc1OC)-c1cc2c(cc1/C3=C\CNCCCN)OCO2	0.0717	1.58	0.13	1.05	0.222	3.94	0.162	2.23	0.115	1.07	0.174	1.27	0.437	3.15		
COC(=O)c1cc(C)c(C)c2c1NC(=O)CNC2=O		> 100		> 100		> 100				> 100				> 100	> 100	> 100
COc1cc(NS(=O)(=O)c2ccc(-c3cnc(C4CC4)o3)cc2)ccc1F	0.572	18.1	0.745	56.5	0.287	> 61.3	0.534	17.9	0.546	18.1	0.579	13.1	0.989	21.4		
CCN(CC)CCCC(C)Nc1cnc(C(=O)Nc2cccc3ccc(OC)nc23)cn1 (stereo not drawn)	1.81	3.52	2.74	8.41	1.78	3.43	1.77	3.34	1.77	3.72	6.93	21.9	2.44	5.63		
Cn1cnc([N+](=O)[O-])c1[Se]c1nc(N)nc2c1ncn2C1OC(CO)C(O)C1O (stereo not drawn)		> 100		> 100		> 100		> 100		> 100		> 100		> 100		
O=C1/C(=C/c2ccc(O)cc2)CSc2ccc(Cl)cc21	4.21	15.8	11.1	> 100	1.99	4.04	2.63	8.75	14	46.9	21.7	> 100	19.3	46		
CCc1oc2ccccc2c1C(=O)c1cc(I)c(O)c(I)c1	4.4	18.3	4.9	28.5	2.39	12.6	3.51	17.1	4.18	17.8	1.04	7.73	3.91	17.4		
C/C(=N\Nc1ccc(Cl)cn1)c1ccccn1	0.218	> 100	0.0704	> 100	0.0622	> 100	0.113	> 24.2	0.134	> 100	0.134	33.9	0.0674	> 100		
CC[C@H](C)[C@H]1O[C@]2(C=C[C@@H]1C)C[C@@H]1C[C@@H](C/C=C(\C)[C@@H](O[C@H]3C[C@H](OC)[C@@H](O[C@H]4C[C@H](OC)[C@@H](NC)[C@H](C)O4)[C@H](C)O3)[C@@H](C)/C=C/C=C3\CO[C@@H]4[C@H](O)C(C)=C[C@@H](C(=O)O1)[C@]34O)O2	1.91	4.07	3.84	14.5	2.14	4.74	1.68	3.13	3.04	11.3	2.12	9.67	2.73	8.34		
COc1cc2c(c(OC)c1OC)C(=O)[C@@H]1c3ccc([N+](=O)[O-])cc3C(=O)N(CCCBr)[C@H]21	23.3	> 100	10.2	37.6	20	> 100	19.5	> 100	7.67	29.9	16.1	78.6	15.4	35.8		
Cc1ccc(C(=O)Nc2ccc(CN3CCN(C)CC3)c(C(F)(F)F)c2)cc1C#Cc1cnc(N)c2ccccc12	0.348	1.12	0.476	2.09	0.41	1.14	0.509	1.09	0.191	0.917	0.506	2.08	0.799	1.76		
O=C(O)[C@@H]1CCCCN1Cc1cc2cc3c(cc2c2cc(OCc4ccccc4)ccc12)OCO3	3.8	15.2	6.62	29	1.84	13.8	1.75	3.56	2	7.8	14.7	41.5	21.6	45.7		
